{
  "source": "paper PMC11984388",
  "about": "“A brain-accessible peptide modulates stroke inflammatory response and neurotoxicity by targeting BDNF-receptor TrkB-T1 specific interactome” (Theranostics, 2025)",
  "key": {"[1]": {"tested_on": "neurons of primary cortical cultures", "experiment": "Neuronal viability (MTT) under NMDA excitotoxicity", "assay_type": "cell-based, rat", "protocol": "Cultures were prepared from cerebral cortex of 18-day-old Wistar rat embryos, both genders indistinctly included. Unless otherwise indicated, glial growth was inhibited after 7 days in vitro (DIVs), experimental treatments taking place after 12 DIVs. These cultures present a high percentage of neurons, combined with glial cells, mostly astrocytes. To induce excitotoxicity, cultures were incubated with NMDA (100 µM) and its co-agonist glycine (10 µM), herein denoted simply as NMDA, which induce a strong excitotoxic response in mature neurons but have no effect on astrocyte viability,[47]. When indicated, cultures were preincubated for 30 min with indicated concentrations of Tat-derived CPPs before NMDA treatment, peptides being kept in the medium along treatment. Total cell or neuronal viability assessment was established by the thiazolyl blue formazan (MTT) reduction assay. Further details are provided as Supplementary material. […]\nskull for 10 min. Br ain injury encompas se s damage to vas cular endothelium, platelet activation, and subs equent microvascula r thrombotic occlus ion of the irradiate d region. The ar eas underneath this ste reotaxic position that result irradiate d ar e the prima ry motor cortex and the prima ry soma tos ens ory cortex (hindlimb and forelimb). Once completed surgery, the incision was sutured, and mice were allowed to recover.\nFor neuroprote ction experiments, a single dose (3 nmol/g) of peptides TMyc or TT1Ct (> 95% purity; GenScript), solubilized as 2.5 mM solutions in 0.9% NaC l, we retro-orbita lly injected 1 h af ter damage initiation. In order to improve their plas ma sta bility, thes e peptides ar e N- and C-ter modifie d by, respec tive ly, ace tyl and amide groups. Mi c e were not subje cted to other procedures before isc hemia and were naive to drug or peptide treatment. Animals were randomly allocated to the experimental groups and the resea rc hers doing the experiments were blind respec t to treatment. There was not a previous es tima tion of sa mple si z e and experiments were independently car r ied out as indicated. Twenty-four hours af ter damage induction, animals completed the beam walking test and were subs equently sa cri f i ced by cervical disloca tion to meas ure the infarc t volume, as indicated below. Be fore that, brains were se ctioned into se ri al 1-mm-thick coronal sl i ce s using a mouse brain matrix (Stoe lting, Wood Dale, IL, USA), and se ctions were completely sta ine d with 2% TTC at room temperature to visua liz e the cortical infarc ts . For immunohistochemis try, animals were deeply anes thetized 5 or 24 h af ter brain damage and intra cardially perfus ed with cold PBS and 4% paraformalde hyde in PBS as indicated below.\nPrimary cultures of rat cor tic al neurons to study in vitro excitotoxicity The diss ected cerebral cortices of Wis ta r rat embryos (E18), both genders included, were mechanic ally diss ociated in culture medium (Minimum Esse ntia l Me dium, ME M, Life Technologies) follow ed by se eding of the cell sus pens ion at a dens ity of 1.1x10^6 cells /ml, prepared in the sa m e medium supple me nted with 22.2 mM glucos e, 0.1 mM glutamax, 5% foetal bovine se rum (FBS), 5% donor horse se rum (HS), 100 U/ml penicillin and 100 µg/ml streptomycin. Be fore se eding, the plates were treated overnight at 37°C with 100 µg/ml poly-L-lysine and 4 µg/ml laminin. The cells were incubated at 37°C in an atmosphe re of 5% CO2 and 95% humidity. Generally, glial growth was inhibited af ter 7 days in vitro (DIV s) by adding 10 µM 5 cytos ine β-D-arabinofuranos ide (AraC) and experimental treatments took place af ter 12 DIVs. Excitotoxicity was induced by incubation with NM DA (100 µM) and glycine (10 µM) for the indicated times. As indicated, cultures were preincubated with Tat-derived CP P s before […]\nMi c e had to walk through a narrow beam (1 m × 1 cm × 1 cm) placed 50 cm above the tabletop, going from an aversive stimulus (60-W light bulb) to a black goal box with nes ting material. […]"}, "[2]": {"tested_on": "primary cortical cultures", "settings": "25 µM"}, "[3]": {"settings": "peptide 25 µM preincubated 30 min, NMDA 100 µM + glycine 10 µM for 2 h, relative to untreated cells (100%), mean ± SEM, n = 8 (Fig 1E)"}, "[4]": {"settings": "peptide 25 µM preincubated 30 min, NMDA 100 µM + glycine 10 µM for 4 h, relative to untreated cells (100%), mean ± SEM, n = 8 (Fig 1E)"}},
  "note": "Where two headings read alike, the source gives them in different places. Residues, ends and D or L forms follow the SMILES beside them. *: point of attachment. Biotin = O=C1N[C@H]2[C@H](CS[C@H]2CCCCC(=O)*)N1",
  "data": [
    {"molecule": "CC[C@H](C)[C@H](NC(=O)[C@H](CCCCN)NC(=O)[C@H](Cc1c[nH]cn1)NC(=O)[C@H](Cc1ccccc1)NC(=O)[C@H](CC(C)C)NC(=O)[C@@H](NC(=O)[C@H](Cc1ccccc1)NC(=O)[C@H](CCCNC(=N)N)NC(=O)[C@H](CCCNC(=N)N)NC(=O)[C@H](CCCNC(=N)N)NC(=O)[C@H](CCC(N)=O)NC(=O)[C@H](CCCNC(=N)N)NC(=O)[C@H](CCCNC(=N)N)NC(=O)[C@H](CCCCN)NC(=O)[C@H](CCCCN)NC(=O)[C@H](CCCNC(=N)N)NC(=O)CNC(=O)[C@H](Cc1ccc(O)cc1)NC(=O)CCCC[C@@H]1SC[C@@H]2NC(=O)N[C@@H]21)C(C)C)C(=O)N1CCC[C@H]1C(=O)N[C@@H](CC(C)C)C(=O)N[C@@H](CC(=O)O)C(=O)NCC(N)=O", "note": "[Bio-sTT1Ct] (Biotin-YGRKKRRQRRRFVLFHKIPLDG-NH2)", "values": [
      {"measurement": "Relative neuronal viability (%)", "setting": "[1]; 2 h, 15 µM", "result": 45, "unit": "%"},
      {"measurement": "Relative neuronal viability (%)", "setting": "[1]; 4 h, 15 µM", "result": 39, "unit": "%"},
      {"measurement": "Relative neuronal viability (%)", "setting": "[1]; [3]", "result": "50 ± 5", "unit": "%"},
      {"measurement": "Relative neuronal viability (%)", "setting": "[1]; [4]", "result": "32 ± 3", "unit": "%"},
      {"measurement": "Relative cell viability (%)", "setting": "[2]; 6 h", "result": 99, "unit": "%"},
      {"measurement": "Relative cell viability (%)", "setting": "[2]; 24 h", "result": 103, "unit": "%"}
    ]},
    {"molecule": "CC[C@H](C)[C@H](NC(=O)[C@H](CC(C)C)NC(=O)[C@H](CCCCN)NC(=O)[C@H](CCC(N)=O)NC(=O)[C@H](CCC(=O)O)NC(=O)[C@H](CCC(=O)O)NC(=O)[C@H](C)NC(=O)[C@H](CCCNC(=N)N)NC(=O)[C@H](CCCNC(=N)N)NC(=O)[C@H](CCCNC(=N)N)NC(=O)[C@H](CCC(N)=O)NC(=O)[C@H](CCCNC(=N)N)NC(=O)[C@H](CCCNC(=N)N)NC(=O)[C@H](CCCCN)NC(=O)[C@H](CCCCN)NC(=O)[C@H](CCCNC(=N)N)NC(=O)CNC(=O)[C@H](Cc1ccc(O)cc1)NC(=O)CCCC[C@@H]1SC[C@@H]2NC(=O)N[C@@H]21)C(=O)N[C@@H](CO)C(=O)N[C@@H](CCC(=O)O)C(=O)N[C@@H](CCC(=O)O)C(=O)N[C@@H](CC(=O)O)C(=O)N[C@@H](CC(C)C)C(=O)N[C@@H](CC(C)C)C(=O)N[C@@H](CCCNC(=N)N)C(N)=O", "note": "[Bio-TMyc, reference compound] (Biotin-YGRKKRRQRRRAEEQKLISEEDLLR-NH2)", "values": [
      {"measurement": "Relative neuronal viability (%)", "setting": "[1]; [3]", "result": "24 ± 3", "unit": "%"},
      {"measurement": "Relative neuronal viability (%)", "setting": "[1]; [4]", "result": "16 ± 3", "unit": "%"},
      {"measurement": "Relative cell viability (%)", "setting": "[2]; 4 h", "result": 100, "unit": "%"},
      {"measurement": "Relative cell viability (%)", "setting": "[2]; 6 h", "result": 97, "unit": "%"},
      {"measurement": "Relative cell viability (%)", "setting": "[2]; 24 h", "result": 97, "unit": "%"}
    ]},
    {"molecule": "Ac-YGRKKRRQRRRPPFVLFHKIPLDG-NH2 [TT1Ct]", "values": [
      {"measurement": "Neuronal viability", "setting": "[1]; CPPs 0: peptide and NMDA (100 µM) at the same time, viability after 4 h of excitotoxicity, relative to untreated cells (100%), mean, n = 4-8 (Fig S4)", "result": 59, "unit": "%"},
      {"measurement": "Neuronal viability", "setting": "[1]; CPPs 30: peptide added 30' post-NMDA (100 µM), viability after 4 h of excitotoxicity, relative to untreated cells (100%), mean, n = 4-8 (Fig S4)", "result": 31, "unit": "%"},
      {"measurement": "Neuronal viability", "setting": "[1]; CPPs 60: peptide added 60' post-NMDA (100 µM), viability after 4 h of excitotoxicity, relative to untreated cells (100%), mean, n = 4-8 (Fig S4)", "result": 37, "unit": "%"},
      {"measurement": "Neuronal viability", "setting": "[1]; dose-response experiment (Fig 3B): peptide 15 µM preincubated 30 min, NMDA 2 h, mean ± SEM, n = 8", "result": "46 ± 7", "unit": "%"}
    ]}
  ]
}
